{
  "source": "patent US7875599B2",
  "about": "“C-17-heteroaryl steroidal CYP17 inhibitors/antiandrogens, in vitro biological activities, pharmacokinetics and antitumor activity” (University of Maryland, priority 2005, dated 2011)",
  "key": {"CYP17 [1]": {"molecular_target": "T1, CYP17 (Homo sapiens, UniProt P05093)", "T1 sequence (P05093 1-508)": "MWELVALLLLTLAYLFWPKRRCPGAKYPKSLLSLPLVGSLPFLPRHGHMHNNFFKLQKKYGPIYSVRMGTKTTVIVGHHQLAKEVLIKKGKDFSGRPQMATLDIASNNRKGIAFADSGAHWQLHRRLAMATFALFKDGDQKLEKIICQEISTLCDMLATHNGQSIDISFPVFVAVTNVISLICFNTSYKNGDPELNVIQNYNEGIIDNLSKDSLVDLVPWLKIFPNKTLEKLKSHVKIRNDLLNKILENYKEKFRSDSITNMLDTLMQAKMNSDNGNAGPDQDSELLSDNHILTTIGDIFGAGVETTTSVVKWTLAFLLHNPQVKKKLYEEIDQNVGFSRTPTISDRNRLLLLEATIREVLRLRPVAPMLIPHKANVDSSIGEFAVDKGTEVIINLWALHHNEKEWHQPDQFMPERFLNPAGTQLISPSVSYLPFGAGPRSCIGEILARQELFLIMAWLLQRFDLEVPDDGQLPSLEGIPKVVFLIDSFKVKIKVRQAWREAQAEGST", "test": "CYP17 inhibition, acetic acid releasing assay with intact P450c17-expressing E. coli"}, "[2]": {"system": "LAPC4 human prostate tumor xenograft", "test": "LAPC4 xenograft, second experiment (treatment from day after inoculation)", "type": "in vivo, mouse", "source_text": "The second in vivo experiment tests the ability of 5 to inhibit the growth of LAPC4 prostate cancer cells growing in SCID mice, and 16 (Chart 1), a previously identified potent CYP17 inhibitor/antiandrogen (Gregoriyev et al. and Njar et al., J. Med. Chem., 1998, 41, 902-912, above) and castration are used as reference treatments. In this experiment, treatment begins on the day that mice were inoculated subcutaneously with hormone-dependent LAPC4 cells and are castrated or injected sc twice daily with 5 or 16.\nIn Vivo Antitumor Studies (LAPC-4 Prostate Cancer Xenografts): All animal studies are performed according to the guidelines and approval of the Animal Care Committee of the University of Maryland School of Medicine, Baltimore. Male severe combined immunodeficient (SCID) mice 4-6 weeks of age purchased from the National Cancer Institute-Frederick Cancer Research and Development Center (Fredrick, Md.) are housed in a pathogen-free environment under controlled conditions of light and humidity and allowed free access to food and water. Tumors are developed from LAPC4 cells inoculated subcutaneously (s.c.) in the mice essentially as previously described (21). LAPC4 cells are grown in IMEM with 15% FBS plus 1% PS and 10 nm DHT until 80% confluent. Cells are scraped into DPBS, collected by centrifugation, and resuspended in Matrigel (10 mg/ml) at 3×10^7 cells/ml. Mice are injected s.c. with 100 μl of the cell suspension at one site on each flank. Tumors are measured weekly with calipers, and tumor volumes are calculated by the formula: […]).\nIn the second experiment, mice are inoculated with LAPC4 cells and are divided into four groups of 5 mice each. The control and castrated group receiv vehicle, while the other two groups receiv either VN/85-1 (0.15 mmol/kg twice-daily, 9 a.m. and 5 p.m.) or 5 (0.15 mmol/kg twice-daily, 9 a.m. and 5 p.m.). These treatments are initiated one day after LAPC4 cell inoculation; continued for 14 weeks for control group, 19 weeks (for VN/85-1 and castration groups) and for 21 weeks for 5 treated group and tumors are measured and processed as described above.\nFIG. 7: The effects of 5, 16, and orchidectomy on the formation and growth of LAPC4 prostate tumors in male SCID mice. 3×10^7 LAPC-4 cells were injected s.c. into the dorsal flank of SCID mice. One group of mice was castrated. The other groups of mice received either vehicle or 5 (0.15 mmol/kg twice-daily) or 16 (0.15 mmol/kg twice-daily). Daily treatment with 5 or 16 was initiated 1 day after cell inoculation. Tumors volumes were measured weekly, and the percentage of change in tumor volume was determined after 16 weeks of treatment * Indicates significant difference of 5 versus control, castration and 16 at week 14 (P 0.00065, 0.05 and 0.0097, respectively). ** Indicates significant difference of 5 versus castration and 16 at week 16 (P=0.047 and 0.0047, respectively). ↓-↓↓: Period of reduced administered dose of 5."}, "[3]": {"molecular_target": "T2, human 5α-reductase type 2 (Homo sapiens, UniProt P31213)", "T2 sequence (P31213 1-254)": "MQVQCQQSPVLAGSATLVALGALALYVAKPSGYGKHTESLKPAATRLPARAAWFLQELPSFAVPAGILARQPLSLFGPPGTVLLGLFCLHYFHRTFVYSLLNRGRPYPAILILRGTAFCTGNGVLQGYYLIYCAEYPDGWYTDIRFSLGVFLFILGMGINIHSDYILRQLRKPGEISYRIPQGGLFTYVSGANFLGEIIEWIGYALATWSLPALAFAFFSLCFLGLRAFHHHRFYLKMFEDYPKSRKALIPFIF", "test": "Human 5α-reductase type 2 assay (BPH tissue homogenate)", "conditions": "for inhibition at 10 µM: read-out: 5α-Reductase type 2 % inhibition at 10 μM"}, "[4]": {"molecular_target": "T3, human 5α-reductase type 1 (Homo sapiens, UniProt P18405)", "T3 sequence (P18405 1-259)": "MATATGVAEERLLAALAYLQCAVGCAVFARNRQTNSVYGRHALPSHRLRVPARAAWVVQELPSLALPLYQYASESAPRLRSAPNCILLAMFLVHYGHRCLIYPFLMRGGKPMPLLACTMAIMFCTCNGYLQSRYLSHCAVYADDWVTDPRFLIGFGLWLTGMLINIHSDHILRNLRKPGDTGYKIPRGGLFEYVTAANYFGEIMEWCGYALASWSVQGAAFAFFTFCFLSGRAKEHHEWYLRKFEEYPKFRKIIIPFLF", "test": "Human 5α-reductase type 1 assay (DU-145 cell line)"}, "CYP17 [5]": {"molecular_target": "T1, CYP17", "test": "UV-vis difference spectroscopy, binding to heme iron of CYP17", "set-up": "peak position of Soret maximum of the enzyme complex: unit not given here"}, "[6]": {"system": "LNCaP mutant AR-mediated transcription", "test": "Luciferase transactivation assay in LNCaP cells transfected with ARR2-Luc", "conditions": "18 h", "experimental": "Luciferase Transactivation Assay: Transcriptional activation assay is carried out as described previously by Kim et al., above, with minor modifications. […] The pRL-null (Promega) is used as the internal control. […] Luciferase activities are measured in triplicates by using dual luciferase assay system according to the manufacturer's instruction (Promega).\nThe bars represent the mean light units [counts per second (cps)/unit protein, i.e., relative luciferase activity] in triplicate wells from three separate experiments."}, "LNCaP cells": {"system": "LNCaP cells", "test": "LNCaP cell growth, WST-1 viability assay", "experimental": "(§1) To determine the effect of novel compounds on cell proliferation, cells are transferred into steroid-free medium three days prior to the start of the experiments. Steroid-free medium consisted of phenol red free RPMI supplemented with 5% dextran-coated, charcoal treated serum, and 1% penicillin/streptomycin solution. Growth studies are then performed by plating cells (3×10^4) in 24-well multi-well dishes (Corning, Inc. Corning, N.Y.). After a 24 hours attachment period, the medium is aspirated and replaced with steroid-free medium containing vehicle or the indicated concentration of DHT (1 nM) and compounds (0.1 μM-10 μM). Control wells are treated with vehicle (ethanol). This medium is changed every three days and the number of viable cells is compared by WST-1 [4-[3-(4-iodophenyl)-2-(4-nitrophenyl)-2H-5-tetrazolio]-1,3-benzene disulfonate] assay on the seventh day. Following incubation of cells for the above-mentioned time, 10% WST-1 solution is added to each well and incubated at 37° C. for three hours. Following incubation, plates are slightly shaken and immediately read at 450 nm with a scanning multi-well spectrophotometer. All results represent the average of a minimum of three wells. Additional control consists of medium alone with no cells.\n(§2) Cells were grown in steroid-free medium before plating."}, "LAPC4 cells": {"system": "LAPC4 cells", "test": "LAPC4 cell growth, WST-1 viability assay", "experimental": "as §1, §2"}, "[7]": {"conditions": "read-out: CYP17 IC50, intact P450c17-expressing E. coli, substrate [21-3H]-17α-hydroxypregnenolone"}},
  "note": "pIC50: −log10 of the molar value. Like-named read-outs stand apart in the source and are kept apart here.",
  "data": [
    {"smiles": "C[C@]12CC[C@H](O)CC1=CC[C@@H]1[C@@H]2CC[C@]2(C)C(n3ccnc3)=CC[C@@H]12", "note": "[VN/85-1, 3β-hydroxy-17-(1H-imidazole-1-yl)androsta-5,16-diene]", "values": [
      {"measurement": "times more potent than 5 in CYP17 inhibition", "setting": "CYP17 [1]", "result": 6, "unit": "times"},
      {"measurement": "pIC50", "setting": "CYP17 [1]; [7]", "result": 7.30},
      {"measurement": "week of therapy at which palpable and measurable tumors develop", "setting": "[2]; 0.15 mmol/kg twice-daily", "result": 11, "unit": "week"},
      {"measurement": "increase of tumor volume", "setting": "[2]; 0.15 mmol/kg twice-daily s.c., week 14", "result": 3.7, "unit": "fold"},
      {"measurement": "reduction of tumor volume versus control mice", "setting": "[2]; 0.15 mmol/kg twice-daily s.c., week 14 (b4 prints 50 mg/kg/twice daily)", "result": 53.8, "unit": "%"}
    ]},
    {"smiles": "C[C@]12CC[C@H](O)CC1=CCC1C2CC[C@]2(C)C(c3cnccn3)=CCC12", "note": "(stereo partly drawn) [Compound 14, 3β-Hydroxy-17-(2-pyrazyl)-androsta-5,16-diene]", "values": [
      {"measurement": "pIC50", "setting": "CYP17 [1]; [7]", "result": 5.42}
    ]},
    {"smiles": "C[C@]12CCC(=O)C=C1CCC1C2CC[C@]2(C)C(n3nnc4ccccc43)=CCC12", "note": "(stereo partly shown) [Compound 10, 17-(benzo-1H-1,2,3-triazol-1-yl)androsta-4,16-diene-3-one]", "values": [
      {"measurement": "melting point", "result": "280 to 283", "unit": "°C"},
      {"measurement": "pIC50", "setting": "CYP17 [1]; [7]", "result": 5.24},
      {"measurement": "inhibition at 10 µM", "setting": "[3]", "result": 56, "unit": "%"},
      {"measurement": "inhibition at 10 µM", "setting": "[4]; read-out: 5α-Reductase type 1 % inhibition at 10 μM", "result": 21, "unit": "%"}
    ]},
    {"smiles": "CC(C)(C)NC(=O)[C@H]1CC[C@H]2[C@@H]3CC[C@H]4NC(=O)C=C[C@]4(C)[C@H]3CC[C@]12C", "note": "[Finasteride, reference compound]", "values": [
      {"measurement": "pIC50", "setting": "[3]; read-out: 5α-Reductase type 2 [IC50], BPH tissue enzyme, values in square brackets", "result": 8.70},
      {"measurement": "pIC50", "setting": "[4]; read-out: 5α-Reductase type 1 [IC50], DU-145 cells, values in square brackets", "result": 7.22}
    ]},
    {"smiles": "C[C@]12CC[C@H](O)CC1=CCC1C2CC[C@]2(C)C(n3nnc4ccccc43)=CCC12", "note": "(stereo partly drawn) [Compound 9, 3β-Hydroxy-17-(benzo-1H-1,2,3-triazol-1-yl)androsta-5,16-diene]", "values": [
      {"measurement": "melting point", "result": "241 to 244", "unit": "°C"},
      {"measurement": "pIC50", "setting": "CYP17 [1]; [7]", "result": 5.90},
      {"measurement": "inhibition at 10 µM", "setting": "[3]", "result": 17, "unit": "%"},
      {"measurement": "peak position of Soret maximum of the enzyme complex", "setting": "CYP17 [5]", "result": 426},
      {"measurement": "type of difference spectrum induced", "setting": "CYP17 [5]", "result": "type II difference spectrum"},
      {"measurement": "5α-Reductase type 1 % inhibition at 10 μM", "setting": "[4]; 10 μM, DU-145 cells, substrate 5 nM [1β-3H]androstenedione", "result": "ni^f"}
    ]},
    {"smiles": "C[C@]12CC[C@H](O)CC1=CC[C@@H]1[C@@H]2CC[C@]2(C)C(c3cccnc3)=CC[C@@H]12", "note": "[Abiraterone, reference compound]", "values": [
      {"measurement": "pIC50", "setting": "CYP17 [1]", "result": 6.10}
    ]},
    {"smiles": "C[C@]12CCC(=O)C[C@@H]1CC[C@@H]1[C@@H]2CC[C@]2(C)[C@@H](O)CC[C@@H]12", "note": "[DHT, dihydrotestosterone]", "values": [
      {"measurement": "increase of luciferase expression", "setting": "[6]; 1.0 nM", "result": "approximately 99.6 fold"},
      {"measurement": "stimulation of LNCaP cell proliferation compared to vehicle-treated cells", "setting": "LNCaP cells; 1 nM", "result": "about 2 fold"},
      {"measurement": "induction of LAPC4 cell proliferation", "setting": "LAPC4 cells; 10 nM", "result": "does not significantly induce cell proliferation"}
    ]},
    {"smiles": "C[C@]12CC[C@H](O)CC1=CC[C@@H]1[C@@H]2CC[C@]2(C)C(c3cncnc3)=CC[C@@H]12", "note": "[Compound 15, 3β-Hydroxy-17-(5-pyrimidyl)-androsta-5,16-diene]", "values": [
      {"measurement": "melting point", "result": "231 to 233", "unit": "°C"},
      {"measurement": "pIC50", "setting": "CYP17 [1]", "result": 6.30}
    ]},
    {"smiles": "CC(O)(CS(=O)(=O)c1ccc(F)cc1)C(=O)Nc1ccc(C#N)c(C(F)(F)F)c1", "note": "(stereo not shown) [Casodex]", "values": [
      {"measurement": "effect on luciferase activity, compound alone", "setting": "[6]; 0.1 and 10.0 μM, without DHT", "result": "no effect"},
      {"measurement": "effect on luciferase expression induced by 1.0 nM DHT", "setting": "[6]; with 1.0 nM DHT", "result": "decreased in a concentration-dependent manner"},
      {"measurement": "pIC50", "setting": "LNCaP cells; Homo sapiens, LNCaP, 168 h, read-out: IC50, inhibition of DHT-induced LNCaP cell proliferation, 1 nM DHT, 7 days, WST-1", "result": 5.07},
      {"measurement": "pIC50", "setting": "LAPC4 cells; Homo sapiens, LAPC4, 168 h, read-out: IC50, inhibition of LAPC4 cell proliferation, 10 nM DHT, 7 days, WST-1", "result": 5.00}
    ]}
  ]
}
